Measured values taken from paper PMC5575254, “An allosteric ligand-binding site in the extracellular cap of K2P channels” (Nature Communications, 2017).

Columns and labels:
[1] = tested on: T1, TREK-1; experiment: Outside-out and inside-out patch recordings of TREK-1; type: cell-based, human; details: +80 mV
T1 construct: expressed in transfected cells; host or cells: CHO cells, transient transfection
Procedure: All electrophysiological recordings were obtained using patch-clamp recordings in two different configurations: (1) whole cell for macroscopic current dose–response curves; and (2) outside-out and inside-out for macroscopic currents recordings.
All patch-clamp recordings were conducted 36–96 h after transfection with an Axopatch-200B amplifier (Molecular Devices) at room temperature (23–25 °C). The microelectrodes fashioned from 1.5 mm thin-walled borosilicate glass with filament were pulled from Flaming/Brown type micropipette puller (P-97; SUTTER INSTRUMENT) with the resistances of 3–7 MΩ (whole cell) or 7–15 MΩ (outside-out) when filled with a solution containing (in mM): 140 KCl, 2 MgCl2, 10 EGTA, 1 CaCl2, 10 HEPES (pH 7.3, adjusted with KOH). External solution contained (in mM): 150 NaCl, 5 KCl, 0.5 CaCl2, 1.2 MgCl2, 10 HEPES (pH 7.3, adjusted with NaOH). The current signals were filtered at 1 kHz and digitized at a 10 kHz sampling frequency by using DigiData 1440 A.
In the outside-out patch recordings and inside-out patch recordings, the inhibitor (10–30 μM TKDC) was applied via dish perfusion. The bath level was kept as low as possible to reduce noise. Currents were recorded at a pipette potential of + 80 mV. […]
mechanical force, lipids, or pH change)? A comprehensive survey would be nice, but even evaluating block +/- one activating stimulus would be a very useful piece of information to know for those interested in using this drug.
Response: We have tested the TKDC-induced inhibition of TREK-1 in addition to the mechanical force using outside-out patch. 10 μM TKDC was applied via dish perfusion. The bath level was kept as low as possible to reduce noise. Currents were recorded at a pipette potential of +80 mV. Mechanical stimulation (-7 mmHg) for patches was applied by suction for the outside-out configuration using a pressure monitor (PM 015D, World Precision Instruments) controlled by clampex 10.6 software. As […]
The main aim of this work is to reveal an allosteric ligand-binding site in the extracellular cap of K2P channels. […]

[2] = tested on: cell surface TREK-1 expression; experiment: Flow cytometry analysis of TREK-1 cell membrane expression; type: cell-based, CHO-K1 cells; details: 10 μM, 20, 40 min and 1 h incubation
Procedure: CHO-K1 cells were transfected with pFLAG-TREK1 for 24 h. After washed with phosphate-buffered saline (PBS), the cells were disassociated with a non-enzyme cell dissociation solution (Sigma). After 10 μM TKDC incubation for 20, 40 min and 1 h at room temperature, cell surface TREK-1 expression in CHO-K1 cells was analyzed by flow cytometry. Transfected cells expressing FLAG-tagged TREK-1 were incubated with monoclonal ANTI-FLAG® M2-FITC antibody (Sigma). Data were collected with a flow cytometer (FACS Calibur, BD Bioscience) and analyzed with Flow Jo.

[3] = tested on: mice; experiment: Open field test; type: in vivo, Male C57BL/6 mice; details: chronic i.p. administration 10 days
Procedure: Male C57BL/6 mice, aged 8 weeks (weighing 18–20 g) were used for acute and chronic drug administration and behavioral tests. The mice were housed four per cage under a 12-h light–dark cycle. Mice were raised under stable conditions with food and water ad libitum. All animal studies and experimental procedures were approved by the Animal Care Committees of the Shanghai Institute of Materia Medica, Chinese Academy of Sciences, and experiments were carried out in accordance with EU Directive 2010/63/EU on the protection of animals used for scientific purposes. […] The mice were removed to a sound-attenuating testing room 3–4 h before testing. The behavioral tests were carried out 30 min and 24 h after acute and chronic drugs administration, respectively.
The apparatus was made of opaque Plexiglas (50 cm × 50 cm) and placed in a room with sound proof. A camera was positioned above the apparatus to monitor the animal behaviors. The mice were randomly placed into the center of the sheet following 30 min drugs administration and their behaviors in the open field arena were recorded for 10 min using the camera. […] Locomotor activity and exploratory behavior were measured in the open field test and each animal was placed individually at the center for a 10 min session. The total distance moved and the number of rearing was measured in this experiment. […]

## CS(=O)(=O)N(CC(=O)N1CCc2ccccc2C1)c1ccc(Cl)cc1 [TKDC, N-(4-cholorphenyl)-N-(2-(3,4-dihydrosioquinolin-2(1H)-yl)-2-oxoethyl)methanesulfonamide]
[1]; application to the extracellular face, 10 and 30 μM
  inhibition of TREK-1, outside-out recording: consistently inhibited TREK-1
[1]; application to the intracellular side, 10 and 30 μM
  inhibition of TREK-1, inside-out recording: did not significantly inhibit TREK-1 activity
[1]; outside-out patch, 10 μM, -7 mmHg
  effect on activation of TREK-1 by mechanical force: suppressed the activation of TREK-1 by mechanical force
[2]
  cell surface signal of TREK-1 positive cells: did not obviously lose the cell surface signal
[3]
  movement into the central area in the open field test: more likely to move into the central area
[3]; among groups
  total distance traveled in the open field test: no obvious difference
